Values of other authors, collected in patent US20140349947A1, “HAIR GROWTH AGENT (EMBODIMENTS) AND METHOD FOR HAIR REGROWTH” (priority 2012, published 2014).

What was measured:
[1] = not given; remark: listed apart in the source
[2] = in ointments and gels, dose up to 1,000 IU/g

Substance | Bioavailability | Duration of the effects of heparin in tissues ([1]; after a single skin application) | Part of preparation deposited in the upper layers of skin ([1]; after application of ointment or gel) | Effect on bleeding time [1, 2] | Systemic effect [1, 2]
heparin sodium [Unfractionated heparin] | low | up to 8 hours | up to 50% | does not affect the bleeding time | does not have a systemic effect
Low molecular weight heparin | high | – | – | – | –
